From a melting point compilation (Tetko et al.; mined from patent text by program, amines drawn as free bases though some values may be those of a salt)

SMILES | melting point [°C]
CN1Cc2c(C=O)ncn2-c2cccc(Cl)c2C1=O | 204 to 205
COc1cc2c(cc1OCc1ccccc1)CCN(C(=O)c1cccc(C#N)c1)C2=O | 195 to 196
O=C(NC1CCN(CCCCl)CC1)c1ccccc1 | 145 to 147
COc1ccccc1-c1ccc(C(=O)O)cc1 | 250 to 253
FC(F)(F)c1cc(CN2CCc3cc(OC[C@H]4CO[C@](Cn5ccnc5)(c5ccc(Cl)cc5Cl)O4)ccc3C2)ccc1Cl (racemic) | 107 to 108
CC(NC(=O)OC(C)(C)C)C(=O)NO (centres undefined) | 74 to 76
CCOC(=O)Nc1ccc(C2CCN(C(=O)OCC)CC2)cc1 | 105 to 107
CCCCNC(=O)NS(=O)(=O)c1ccc(CCNC(=O)N2CCCCC2=O)cc1 | 156 to 158
CCC1CN(Cc2c(C)cc(C)cc2C)CCN1 (centres undefined) | 111 to 114
CCOC(=O)c1c(C(C)(C)O)nc(CC)n1Cc1ccc(-c2ccccc2-c2nnnn2C(c2ccccc2)(c2ccccc2)c2ccccc2)cc1 | 150 to 152
O=c1c2[nH]cnc2n(CC2CC2)c(=O)n1CC1CC1 | 203
CSc1ccc(C2=C(c3ccc(F)cc3)C(=O)OC2)c(F)c1 | 118 to 122
Nc1sc2c(c1C(=O)c1ccsc1)CCN(Cc1ccccc1)C2 | 131 to 133
O=C(O)Cc1ccc(-n2sc3ccccc3c2=O)cc1 | 173 to 175
CC(C)C(=O)c1ccc(-c2ccc3c(c2)CC[C@H]2N(C)C(=O)CC[C@]32C)cc1 | 101 to 103
O=C(C=Cc1ccc(F)cc1)c1c(F)c(F)c(F)c(F)c1F | 80 to 84

SMILES | melting point [°C]
c1coc(P(CCP(c2ccco2)c2ccco2)c2ccco2)c1 | 94 to 96
CC(C)(C=O)C(O)(CCc1ccc(F)cc1)Cn1cncn1 (centres undefined) | 98
CCCCSc1ccccc1C(=O)O | 96 to 101
NCCc1ccc(Cl)c(Cl)c1CCO | 79 to 80
CCN1CCCC1CNC(=O)c1cc(S(C)(=O)=O)c(N)cc1OC (centres undefined) | 151 to 152
O=[N+]([O-])c1c(Cl)cccc1-c1nn(CO)cc1Cl | 146
CON=C(C#N)c1ccccc1S(N)(=O)=O | 82 to 90
Cc1ccc(C(=O)c2[nH]c3cc(Cl)ccc3c2CC(=O)O)nc1 | 235 to 238
CC(O)CSc1cc(C(C)(C)C)c(O)c(C(C)(C)C)c1 (centres undefined) | 82
COc1ccc(-c2[nH]nc3c2C(=O)c2c(NC(=O)CN4CCCCC4)cccc2-3)cc1 | 291
O=C(O)C1=Cc2cc(Br)cc(F)c2OC1C(F)(F)F (centres undefined) | 206 to 208
Nc1ncc(CCO)s1 | 125 to 127
O=C1CC2(C(=O)N1)c1ccccc1Oc1ccccc12 | 226 to 228
CN1C(=O)COc2cccc3nc4c(c1c23)CCCC4 | 176 to 178
COc1ccc(C2(C#Cc3cccc(-c4nc(C)no4)c3)CCC(=O)CC2)cc1OC1CCCC1 | 88 to 91

Next, values leading:

melting point [°C] | SMILES
153 to 156 | CC1(COc2ccc(Cc3nnn[nH]3)cc2)CCCCC1=NO (centres undefined)
121 | CC(C)=NOCOc1cc(-n2c(=O)cc(C(F)(F)F)n(C)c2=O)c(F)cc1Br
231 to 233 | Cc1cnc2c(NC(=O)c3ccccc3[N+](=O)[O-])ccc(C)c2c1-n1ccnc1
237 to 238 | CN(C)c1cccc(-c2ccc3c(C(N)=O)nn(-c4ccc(S(N)(=O)=O)cc4)c3c2)c1
100 to 102 | Cc1cccc(-c2n[nH]cc2-c2ccc(F)c(-c3ccc(S(C)(=O)=O)cc3)c2)n1
69 to 72 | CCOC(=O)C(CCCCOc1ccccc1)C(=O)O (centres undefined)
142 to 143 | Cc1nc(N2CCC(NCCC(F)(F)F)C2=O)sc1C(=O)NCc1ccc(F)cc1 (centres undefined)
88 to 89 | CCOC(=O)CC1SC(c2cc(C(C)(C)C)c(O)c(C(C)(C)C)c2)N(CCCN(C)CCOc2ccc3c(c2)OCO3)C1=O (centres undefined)
256 to 258 | Oc1ccc2nc(-c3cccc(O)c3O)oc2c1
60 to 61 | CC1(C)O[C@@]23CC(=O)CC[C@@]2(C)CC[C@@H]1C3
140 to 141 | CC1CN(c2ccc(N)cc2Cl)C(=O)O1 (centres undefined)
159 to 160 | CC1CN(c2ccc(Cl)cn2)N=C1N (centres undefined)
152 to 154 | CCC(CC)n1c(=O)n(C)c2c(Oc3c(C)cc(C)cc3C)nc(C)cc21
106 to 107 | Cc1ccccc1-c1cc2cc(O)c(Cl)c(Cl)c2s1
165 to 168 | COc1cc(C)nc(NC(=O)NS(=O)(=O)c2cccnc2Cl)n1
232 to 235 | CSc1nc2sccc2c(=O)[nH]1
174 to 175 | CCOC(=O)c1ccc2c(O)c(C(=O)OCC)c(=O)n(C)c2n1
155 to 157 | CCCCn1c(=O)c2c(ncn2S(=O)(=O)c2ccc(N(OC(C)=O)C(C)=O)cc2)n(CCCC)c1=O
105 | CCCCCCCOc1ccc(C(=O)O)c(F)c1F
207 to 209 | O=C1CC(c2ccccc2)Cc2[nH]ccc(=O)c21 (centres undefined)
197 to 199 | O=S(=O)(Nc1c(Cl)ccc2cc(-c3ncc(CO)s3)[nH]c12)c1cccs1
86 to 89 | CN(C)C(=O)c1c(F)cccc1I

melting point [°C] | SMILES
60 | CC(C)SC1=C(Cl)CSS1=O (centres undefined)
159 | CS(=O)COC(=O)c1oc(-c2ccccc2)cc(=O)c1Br (centres undefined)
168 to 169 | Cc1ccc(N(C)S(=O)(=O)c2cccs2)c2[nH]c(C3=NCC(CCO)S3)cc12 (centres undefined)
252 | Cc1cnc2c(c1)n(C(C)C)c(=O)n2-c1ccc(Oc2nc3cccnc3n2C)cc1
105 to 110 | CCON=C(C(=O)OC)c1nccc(N)n1
190 | CCn1ncnc1COc1nn2c(-c3ccc(F)cc3)nncc2c1C(C)(C)C
216 to 220 | CSc1ccc(-c2c(Cl)ncn2-c2ccc(S(C)(=O)=O)cc2)cc1
97 to 99 | CC(C)(CN)Cc1ccc(-c2ccc(CC(C)(C)CN)cc2)cc1
145 to 146 | CCOC(=O)C=C(C)Nc1c[nH]nc1-c1ccc(Cl)cc1
88 | CC1(C)CC(S(=O)(=O)C(F)c2c(F)cccc2F)=NO1 (centres undefined)
80 to 82 | CC(C)(C)OC(=O)NCCOc1ccc(OCC2(C)OCCO2)cc1
143 | CCOc1c(N)c2c(c(OCC)c1OCC)C(C1c3cc(OC)c(OC)cc3CCN1C)OC2=O (centres undefined)
96 to 97 | O=C1c2cc(N(CCO)CCO)ccc2OC12CC2
245 | Cc1cc(-c2cnn3c(C(F)(F)F)cc(-c4ccc(C(F)(F)F)c(F)c4)nc23)cc(C)n1
145 to 153 | CCN1C(=O)CCCc2cc(Nc3ncc(Cl)c(N[C@H]4[C@@H](C(N)=O)[C@@H]5C=C[C@H]4C5)n3)c(OC)cc21
63 to 66 | CCCCN(C(=O)Nc1ccc(F)cc1F)c1cnc2ccc(Cl)cc2c1-c1ccccc1Cl
130 to 132 | Cc1c(-c2ccc(C(=O)O)cc2)ccc(-c2ccccc2)c1-c1ccc2c(c1)C(C)(C)CCC2(C)C
362 to 364 | O=C(O)c1ccc2c(c1)Sc1ccccc1NC2=O
120 | CCCC(CCC)(CCC)NC(=O)NC
133 | CCS(=O)(=O)c1ccc2cc(C(C)=O)ccc2c1
106 to 107 | CN(O)C(=O)NCc1cccs1
